Test results from patent publication US10174016B2 (BAYER AKTIENGESELLSCHAFT, priority 2014, dated 2019).

What was measured:
human P2X3 receptor = human P2X3 receptor (Homo sapiens (Human), UniProt P56373); test: Intracellular calcium measurement (FLIPR, Fluo-4) of antagonist activity at human P2X3 receptors; assay type: cell-based; conditions: human P2X3, FLIPR calcium assay, agonist α,β-Me-ATP; read-out: hP2X3 IC50
Outline: (§1)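 Cells expressing human P2X3 or P2X2/3, loaded with Fluo-4, preincubated 30 min at 37° C. with compound (1% DMSO final), then challenged with α,β-Me-ATP at its EC80. Peak FLIPR fluorescence over 90 sec gave % response; IC50, maximal inhibition and Hill slope from triplicates.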

human P2X2/3 receptor = human P2X2/3 receptor (Homo sapiens (Human), UniProt P56373+Q9UBL9); test: Intracellular calcium measurement (FLIPR, Fluo-4) of antagonist activity at human P2X2/3 receptors; assay type: cell-based; conditions: human P2X2/3, FLIPR calcium assay, agonist α,β-Me-ATP; read-out: hP2X2/3 IC50
Sequence of human P2X2/3 receptor (P56373 whole entry): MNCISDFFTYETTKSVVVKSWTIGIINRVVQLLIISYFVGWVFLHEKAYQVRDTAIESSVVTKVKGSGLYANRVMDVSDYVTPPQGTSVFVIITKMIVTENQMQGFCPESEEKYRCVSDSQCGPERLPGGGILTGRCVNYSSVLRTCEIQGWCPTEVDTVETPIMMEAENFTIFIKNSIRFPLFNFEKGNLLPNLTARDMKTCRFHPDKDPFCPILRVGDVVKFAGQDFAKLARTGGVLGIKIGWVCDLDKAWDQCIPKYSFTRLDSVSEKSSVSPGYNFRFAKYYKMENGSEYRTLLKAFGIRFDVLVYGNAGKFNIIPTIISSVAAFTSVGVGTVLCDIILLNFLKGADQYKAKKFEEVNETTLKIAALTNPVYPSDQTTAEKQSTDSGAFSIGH
Sequence of human P2X2/3 receptor (Q9UBL9 whole entry): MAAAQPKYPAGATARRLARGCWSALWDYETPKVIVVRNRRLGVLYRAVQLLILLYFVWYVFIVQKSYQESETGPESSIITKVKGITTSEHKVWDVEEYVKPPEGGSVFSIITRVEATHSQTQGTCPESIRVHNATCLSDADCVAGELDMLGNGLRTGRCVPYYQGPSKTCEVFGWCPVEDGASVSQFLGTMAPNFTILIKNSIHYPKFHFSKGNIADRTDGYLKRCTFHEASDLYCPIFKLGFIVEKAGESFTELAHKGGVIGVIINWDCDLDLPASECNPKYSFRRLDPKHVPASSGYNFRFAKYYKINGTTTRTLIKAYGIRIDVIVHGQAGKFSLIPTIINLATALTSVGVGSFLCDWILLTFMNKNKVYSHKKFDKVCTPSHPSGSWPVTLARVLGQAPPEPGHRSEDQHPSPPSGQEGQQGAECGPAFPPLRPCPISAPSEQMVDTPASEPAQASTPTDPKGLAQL
Outline: as §1

Sequence of human P2X3 receptor (P56373 whole entry): as the sequence (P56373 whole entry) above

| IC50 (human P2X3 receptor) [nM] | IC50 (human P2X2/3 receptor) [nM] | Compound |
| --- | --- | --- |
| 34 | 987 | Cc1cnc(-c2cc(OC3C4COCC3CN(C(C)C)C4)cc(C(=O)N[C@H](C)c3cnc(C(F)(F)F)nc3)c2)s1 (stereo partly drawn) [Example 344, 3-[(7-isopropyl-3-oxa-7-azabicyclo[3.3.1]non-9-yl)oxy]-5-(5-methyl-1,3-thiazol-2-yl)-N-{(1R)-1-[2-(trifluoromethyl)pyrimidin-5-yl]ethyl}benzamide] |
| 16 | 346 | Cc1cnc(-c2cc(OCC3CC3)cc(C(=O)NC(C)c3ncc(F)cc3Cl)c2)s1 (racemic) [Example 5, N-[1-(3-Chloro-5-fluoropyridin-2-yl)ethyl]-3-(cyclopropylmethoxy)-5-(5-methyl-1,3-thiazol-2-yl)benzamide] |
| 84 | 3050 | Cc1cnc(-c2cc(OC3CN(C)C3)cc(C(=O)N[C@H](C)c3cnc(C(F)(F)F)nc3)c2)s1 [Example 143, 3-[(1-Methylazetidin-3-yl)oxy]-5-(5-methyl-1,3-thiazol-2-yl)-N-{(1R)-1-[2-(trifluoromethyl)pyrimidin-5-yl]ethyl}benzamide] |
| 6 | 59 | COC(=O)N1CCC(Oc2cc(C(=O)N[C@H](C)c3cnc(C(F)(F)F)nc3)cc(-c3ncc(C)s3)c2)CC1 [Example 226, Methyl 4-[3-(5-methyl-1,3-thiazol-2-yl)-5-({(1R)-1-[2-(trifluoromethyl)pyrimidin-5-yl]ethyl}carbamoyl)phenoxy]piperidine-1-carboxylate] |
| 42 | 2750 | Cc1cnc(-c2cc(OC[C@H]3CCCN3C)cc(C(=O)N[C@H](C)c3cnc(C(F)(F)F)nc3)c2)s1 [Example 379, 3-{[(2R)-1-methylpyrrolidin-2-yl]methoxy}-5 (5-methyl-1,3-thiazol-2-yl)-N-{(1R)-1-[2-(trifluoromethyl)pyrimidin-5-yl]ethyl}benzamide] |
| 81 | 1650 | C#CCOc1cc(C(=O)N[C@H](C)c2cnc(C)nc2)cc(-c2ncc(C)s2)c1 [Example 39, N-[(1R)-1-(2-Methylpyrimidin-5-yl)ethyl]-3-(5-methyl-1,3-thiazol-2-yl)-5-(prop-2-yn-1-yloxy)benzamide] |
| 82 | 3980 | Cc1cnc(-c2cc(OCC3CNC3)cc(C(=O)N[C@H](C)c3cnc(C(F)(F)F)nc3)c2)s1 [Example 394, 3-(Azetidin-3-ylmethoxy)-5-(5-methyl-1,3-thiazol-2-yl)-N-{(1R)-1-[2-(trifluoromethyl)pyrimidin-5-yl]ethyl}benzamide] |
| 22 | 906 | CCOC(=O)N1CC2(COc3cc(C(=O)N[C@H](C)c4cnc(C(F)(F)F)nc4)cc(-c4ncc(C)s4)c3)CC1CO2 (stereo partly drawn) [Example 410, Ethyl 1-{[3-(5-methyl-1,3-thiazol-2-yl)-5-({(1R)-1-[2-(trifluoromethyl)pyrimidin-5-yl]ethyl}carbamoyl)phenoxy]methyl}-2-oxa-5-azabicyclo[2.2.1]heptane-5-carboxylate] |
| 35 | 209 | Cc1ccc([C@@H](C)NC(=O)c2cc(OC[C@H]3CCOC3)cc(-c3ncc(C4CCC4)s3)c2)nn1 [Example 135, 3-(5-Cyclobutyl-1,3-thiazol-2-yl)-N-[(1R)-1-(6-methylpyridazin-3-yl)ethyl]-5-[(3S)-tetrahydrofuran-3-ylmethoxy]benzamide] |
| 4 | 57 | CCc1cnc(-c2cc(OC[C@@H]3CCCO3)cc(C(=O)N[C@H](C)c3cnc(C(F)(F)F)nc3)c2)s1 [Example 284, 3-(5-ethyl-1,3-thiazol-2-yl)-5-[(2S)-tetrahydrofuran-2-ylmethoxy]-N-{(1R)-1-[2-(trifluoromethyl)pyrimidin-5-yl]ethyl}benzamide] |

Continued, compound first:

| Compound | IC50 (human P2X3 receptor) [nM] | IC50 (human P2X2/3 receptor) [nM] |
| --- | --- | --- |
| Cc1cnc(-c2cc(O[C@@H]3CCOC3)cc(C(=O)N[C@H](C)c3ccc(C(F)(F)F)nc3)c2)s1 [Example 157, 3-(5-methyl-1,3-thiazol-2-yl)-5-[(3R)-tetrahydrofuran-3-yloxy]-N-{(1R)-1-[6-(trifluoromethyl)pyridin-3-yl]ethyl}benzamide] | 17 | 534 |
| CCc1cnc(-c2cc(OC[C@H]3CCOC3)cc(C(=O)N[C@H](C)c3cnc(C)cn3)c2)s1 [Example 277, 3-(5-ethyl-1,3-thiazol-2-yl)-N-[(1R)-1-(5-methylpyrazin-2-yl)ethyl]-5-[(3S)-tetrahydrofuran-3-ylmethoxy]benzamide] | 6 | 96 |
| Cc1cnc(-c2cc(OC[C@@H]3CNC(=O)CO3)cc(C(=O)N[C@H](C)c3cnc(C(F)(F)F)nc3)c2)s1 [Example 400, 3-(5-methyl-1,3-thiazol-2-yl)-5-{[(2S)-5-oxomorpholin-2-yl]methoxy}-N-{(1R)-1-[2-(trifluoromethyl)pyrimidin-5-yl]ethyl}benzamide] | 59 | 1480 |
| Cc1cnc(-c2cc(O[C@H]3CCOC3)cc(C(=O)NC(C)c3ncc(F)cc3Cl)c2)s1 (stereo partly drawn) [Example 132, N-[1-(3-Chloro-5-fluoropyridin-2-yl)ethyl]-3-(5-methyl-1,3-thiazol-2-yl)-5-[(3S)-tetrahydrofuran-3-yloxy]benzamide] | 75 | 2050 |
| Cc1cnc(-c2cc(OCC3CCOCC3)cc(C(=O)NC(C)c3ncc(F)cc3Cl)c2)s1 (stereo not shown) [Example 96, N-[1-(3-Chloro-5-fluoropyridin-2-yl)ethyl]-3-(5-methyl-1,3-thiazol-2-yl)-5-(tetrahydro-2H-pyran-4-ylmethoxy)benzamide] | 18 | 1080 |
| CC(C)c1cnc(-c2cc(OC[C@@H]3CCOC3)cc(C(=O)N[C@H](C)c3cnc(C(F)(F)F)nc3)c2)s1 [Example 266, 3-[5-(propan-2-yl)-1,3-thiazol-2-yl]-5-[(3R)-tetrahydrofuran-3-ylmethoxy]-N-{(1R)-1-[2-(trifluoromethyl)pyrimidin-5-yl]ethyl}benzamide] | 41 | 367 |
| Cc1cnc(-c2cc(OC3COC3)cc(C(=O)NC(C)c3nnc(C(F)(F)F)s3)c2)s1 (single isomer, unassigned) [Example 193, 3-(5-Methyl-1,3-thiazol-2-yl)-5-(oxetan-3-yloxy)-N-{1-[5-(trifluoromethyl)-1,3,4-thiadiazol-2-yl]ethyl}benzamide] | 2710 | ≥ 10000 |
| CC(C)c1cnc(-c2cc(OC[C@@H]3CCCO3)cc(C(=O)N[C@H](C)c3ccc(C(F)(F)F)nn3)c2)s1 [Example 301, 3-[5-(propan-2-yl)-1,3-thiazol-2-yl]-5-[(2S)-tetrahydrofuran-2-ylmethoxy]-N-{(1R)-1-[6-(trifluoromethyl)pyridazin-3-yl]ethyl}benzamide] | 91 | 1710 |
| Cc1cnc(-c2cc(Oc3nnc(C)s3)cc(C(=O)N[C@H](C)c3cnc(C(F)(F)F)nc3)c2)s1 [Example 111, 3-[(5-Methyl-1,3,4-thiadiazol-2-yl)oxy]-5-(5-methyl-1,3-thiazol-2-yl)-N-[(1R)-1-[2-(trifluoromethyl)pyrimidin-5-yl]ethyl]benzamide] | 16 | 380 |
| CCCN1CC2(COc3cc(C(=O)N[C@H](C)c4cnc(C(F)(F)F)nc4)cc(-c4ncc(C)s4)c3)CC1CO2 (stereo partly drawn) [Example 408, 3-(5-methyl-1,3-thiazol-2-yl)-5-[(5-propyl-2-oxa-5-azabicyclo[2.2.1]hept-1-yl)methoxy]-N-{(1R)-1-[2-(trifluoromethyl)pyrimidin-5-yl]ethyl}benzamide] | 32 | 1710 |
| C#CCOc1cc(C(=O)N[C@H](C)c2cnc(C)cn2)cc(-c2ncc(C)s2)c1 [Example 34, N-[(1R)-1-(5-Methylpyrazin-2-yl)ethyl]-3-(5-methyl-1,3-thiazol-2-yl)-5-(prop-2-yn-1-yloxy)benzamide] | 111 | 2120 |
| Cc1ccc(CNC(=O)c2cc(OC[C@@H]3CCOC3)cc(-c3ncc(C)s3)c2)nn1 [Example 75, N-[(6-Methylpyridazin-3-yl)methyl]-3-(5-methyl-1,3-thiazol-2-yl)-5-[(3R)-tetrahydrofuran-3-ylmethoxy]benzamide] | 38 | 6640 |
| Cc1cnc(-c2cc(OC3CCN(C)CC3)cc(C(=O)N[C@H](C)c3cnc(C(F)(F)F)nc3)c2)s1 [Example 139, 3-[(1-Methylpiperidin-4-yl)oxy]-5-(5-methyl-1,3-thiazol-2-yl)-N-{(1R)-1-[2-(trifluoromethyl)pyrimidin-5-yl]ethyl}benzamide] | 8 | 962 |
| Cc1cnc(-c2cc(OC[C@@H]3CCCO3)cc(C(=O)N[C@H](C)c3ccc(C(F)(F)F)nn3)c2)s1 [Example 60, 3-(5-Methyl-1,3-thiazol-2-yl)-5-[(2S)-tetrahydrofuran-2-ylmethoxy]-N-{(1R)-1-[6-(trifluoromethyl)pyridazin-3-yl]ethyl}benzamide] | 11 | 578 |
| Cc1cnc(-c2cc(O[C@H]3C[C@H]4CC[C@@H](C3)N4C)cc(C(=O)N[C@H](C)c3cnc(C(F)(F)F)nc3)c2)s1 [Example 216, 3-{[(3-endo)-8-methyl-8-azabicyclo[3.2.1]oct-3-yl]oxy}-5-(5-methyl-1,3-thiazol-2-yl)-N-{(1R)-1-[2-(trifluoromethyl)pyrimidin-5-yl]ethyl} benzamide] | 14 | 928 |
| Cc1cnc(-c2cc(OC[C@@H]3CN(C)CCO3)cc(C(=O)N[C@H](C)c3ccc(C(F)(F)F)nn3)c2)s1 [Example 374, 3-{[(2S)-4-methylmorpholin-2-yl]methoxy}-5-(5-methyl-1,3-thiazol-2-yl)-N-{(1R)-1-[6-(trifluoromethyl)pyridazin-3-yl]ethyl}benzamide] | 55 | 2560 |
